Laboratory results as given in patent publication US20040121965A1, “Method of treating resistant tumors” (Wyeth Holdings Corporation, priority 2002, published 2004).
Like-named read-outs stand apart in the source and are kept apart here.

How the values were obtained:
[1] = test system: KB-V1 (MDR1++); assay: Cell survival assay (SRB), KB-V1 (MDR1++); details: for IC50: Homo sapiens, read-out: In vitro IC50 (nM) KBV1
[2] = test system: KB-8-5 (MDR1+); assay: Cell survival assay (SRB), KB-8-5 (MDR1+); details: for IC50: Homo sapiens, MDR1, read-out: In vitro IC50 (nM) KB85
[3] = test system: KB-3-1; assay: Cell survival assay (SRB), KB-3-1; type: cell-based, human; details: Homo sapiens
Text: Cells lines with previously known mechanisms of resistance. […] Res. 8: 207-218,1996); KB-3-1 (parental derived from an epidermoid carcinoma), KB-8.5, KB-V1 (Akiyama S-I, Fojo A, Hanover J A, Pastan I, Gottesman M M. Isolation and genetic characterization of human KB cell lines resistant to multiple drugs. Somatic Cell Mol. Gen., 11: 117-126,1985; Shen D-W, Cardarelli C, Hwang J, Cornwell M, Richert N, Ishii S, Pastan I, Gottesman MM. […] J. Biol. Chem., 261: 7762-7770, 1986); and HL-60 (parental derived from human leukemia) and HL60/AR (McGrath T., Center M. S. Adriamycin resistance in HL60 cells in the absence of detectable P-glycoprotein. Biochem. Res. Commun., 145:1171-1176,1987); A549 and A549.EpoB40 (He L., Yang C.-P.H., Horwitz S. B. Mutations in p-tubulin map to domains involved in regulation of microtubule stability in epothilone-resistant cell lines. Molecular Cancer Therapeutics. 1: 3-10, 2001). HCT-15 human colon carcinoma and DLD-1 human colon carcinoma are obtained from American Tissue Culture Collection. The MX-1W carcinoma is a Wyeth variant orginally obtained as MX-1 breast carcinoma from the National Cancer Institute. Cell lines selected for resistance to Representative Example 129. KB-3-1 cells are selected for resistance to Example 129 by chronically exposing cells to increasing concentrations of Example 129.
2.2. Cell Survival Assay: Standard Pharmacological Test Procedure. The concentration of candidate inhibitor required to inhibit 50% of cell growth (IC50) is done according to previously reported methods. […] Compounds are serially diluted into media as 2× stocks and 100 μl added to cells in duplicate. Compounds are incubated with cells for 3 days. At the end of the incubation period the sulforhodamine B (SRB) assay, which measures protein content as an assessment of cell survival, is performed as described previously (Skehan P, Storeng R, Scudiero D, Monks A, McMahon J, Vistica D, Warren J T, Bokesch H, Kenney S, Boyd MR. New calorimetric cytotoxicity assay for anticancer-drug screening. J Natl Cancer Inst 1990 Jul 4;82(13):1107-12) with some modification as follows. For KB-3-1 cells with 20% FCS, media is gently decanted and replaced with 200 μl of serum-free media mixed with cold 50% TCA for a final concentration of 10% TCA. The plates are incubated for 1 hr at 4° C., followed by washing 5 times in cold distilled water, then air dried overnight. The fixed cells are stained for 10 min with 80 μl of 0.04% SRB solution prepared in 1% glacial acetic acid. Stain is discarded and plates washed 5 times in 1% glacial acetic acid, then air-dried until completely dry. Stained cell product is dissolved in 150 μl of 10 mM Trizma Base and placed on a shaker for 20 minutes until fully dissolved. Absorbance is read on a Victor V multi-label plate reader (Perkin Elmer, Gaithersburg, Md.).

[4] = KB 3-1, KB-3-1 cells (paclitaxel-sensitive parent), read-out: In vitro IC50 (nM) KB-3-1

## CNC(=O)/C(C)=C/[C@H](C(C)C)N(C)C(=O)[C@@H](NC(=O)[C@@H](NC)C(C)(C)c1ccccc1)C(C)(C)C [Example 108, (E,4S)-4-[((2S)-3,3-dimethyl-2-{[(2S)-3-methyl-2-(methylamino)-3-phenylbutanoyl]amino}butanoyl)(methyl)amino]-N,2,5-trimethyl-2-hexenamide]
[1]
  Ratio KBV1/KB: 23.3
  IC50: 1590 nM
[2]
  Ratio KB85/KB: 1.9
  IC50: 129 nM
[3]; [4]
  IC50: 68.3 nM

## CN[C@@H](C(=O)N[C@H](C(=O)N(C)[C@H](/C=C(\C)C(=O)O)C(C)C)C(C)(C)C)C(C)(C)c1ccc(C)cc1 [Example 12, N,β,β,4-Tetramethyl-D-phenylalanyl-N^1-[(1S,2E)-3-carboxy-1-isopropyl-2-butenyl]-N^1,3-dimethyl-L-valinamide]
[1]
  Ratio KBV1/KB: 63.1
  IC50: 1070 nM
[2]
  Ratio KB85/KB: 1.6
  IC50: 27.5 nM
[3]; [4]
  IC50: 17 nM

## CN[C@@H](C(=O)N[C@H](C(=O)N(C)[C@H](/C=C(\C)C(=O)O)C(C)C)C(C)(C)C)C1(c2ccccc2)CCCC1 [Example 72, (2E,4S)-2,5-dimethyl-4-(methyl{3-methyl-N-[(2R)-2-(methylamino)-2-(1-phenylcyclopentyl)ethanoyl]-L-valyl}amino)-2-hexenoic Acid]
[1]
  Ratio KBV1/KB: 45.0
  IC50: 2660 nM
[2]
  Ratio KB85/KB: 1.1
  IC50: 63.1 nM
[3]; [4]
  IC50: 59.3 nM

## CCOC(=O)/C(C)=C/[C@H](C(C)C)N(C)C(=O)[C@@H](NC(=O)[C@@H](NC)C(C)(C)c1ccccc1OC)C(C)(C)C [Example 54, 2-Methoxy-N,β,β-trimethyl-L-phenylalanyl-N^1-[(1S,2E)-4-ethoxy-1-isopropyl-3-methyl-4-oxo-2-butenyl]-N^1,3-dimethyl-L-valinamide]
[1]
  Ratio KBV1/KB: 16.6
  IC50: 2090 nM
[2]
  Ratio KB85/KB: 4.8
  IC50: 602 nM
[3]; [4]
  IC50: 126 nM

## CN[C@H](C(=O)N[C@H](C(=O)N(C)[C@@H](/C=C(\C)C(=O)O)C(C)C)C(C)(C)C)C(C)(C)c1ccccc1 [Example 157, N,β,β-trimethyl-L-phenylalanyl-N^1-[(1R,2E)-3-carboxy-1-isopropylbut-2-enyl]-N^1,3-dimethyl-L-valinamide]
[1]
  Ratio KBV1/KB: 5.0
  IC50: > 3000 nM
[2]
  Ratio KB85/KB: 2.7
  IC50: 1650 nM
[3]; KB 3-1, read-out: In vitro IC50 (nM) KB-3-1
  IC50: 605 nM

## CN[C@H](C(=O)N[C@H](C(=O)N(C)[C@H](/C=C(\C)C(=O)O)C(C)C)C(C)(C)C)C(C)(C)c1ccc(Br)cc1 [Example 43, 4-bromo-N,β,β-trimethylphenylalanyl-N^1-[(1S,2E)-3-carboxy-1-isopropyl-2-butenyl]-N^1,3-dimethyl-L-valinamide]
[1]
  Ratio KBV1/KB: 69.8
  IC50: 105 nM
[2]
  Ratio KB85/KB: 2.9
  IC50: 4.4 nM
[3]; [4]
  IC50: 1.5 nM

## CCOC(=O)/C(C)=C/[C@H](C(C)C)N(C)C(=O)[C@@H](NC(=O)[C@@H](NC)C(C)(C)C1CCCCC1)C(C)(C)C [Reference Example 100, 3-Cyclohexyl-N-methyl-L-valyl-N^1-[(1S,2E)-4-ethoxy-1-isopropyl-3-methyl-4-oxo-2-butenyl]-N^1,3-dimethyl-L-valinamide]
[1]
  Ratio KBV1/KB: 8.5
  IC50: 1950 nM
[2]
  Ratio KB85/KB: 2.6
  IC50: 602 nM
[3]; [4]
  IC50: 229 nM

## CN[C@H](C(=O)N[C@H](C(=O)N(C)[C@H](/C=C(\C)C(=O)O)C(C)C)C(C)(C)C)C(C)(C)c1cccc(OC)c1 [Example 46, 3-Methoxy-N,β,β-trimethylphenylalanyl-N^1-[(1S,2E)-3-carboxy-1-isopropyl-2-butenyl]-N^1,3-dimethyl-L-valinamide]
[1]
  Ratio KBV1/KB: 64.0
  IC50: 224 nM
[2]
  Ratio KB85/KB: 1.7
  IC50: 5.9 nM
[3]; [4]
  IC50: 3.5 nM

## CN[C@H](C(=O)N[C@H](C(=O)N(C)[C@H](/C=C(\C)C(=O)O)C(C)C)C(C)(C)SCc1ccc(OC)cc1)C(C)(C)c1ccccc1 [Example 82, N,β,β-trimethyl-L-phenylalanyl-N^1-[(1S,2E)-3-carboxy-1-isopropyl-2-butenyl]-3-[(4-methoxybenzyl)sulfanyl]-N^1-methyl-L-valinamide]
[1]
  Ratio KBV1/KB: 40.1
  IC50: 2360 nM
[2]
  Ratio KB85/KB: 1.7
  IC50: 100 nM
[3]; [4]
  IC50: 59 nM

## CN[C@H](C(=O)N[C@H](C(=O)N(C)[C@H](/C=C(\C)C(=O)O)C(C)C)C(C)(C)C)C(C)(C)c1ccc(C(=O)c2ccccc2)cc1 [Example 91, 4-benzoyl-N,β,β-trimethyl-L-phenylalanyl-N^1-[(1S,2E)-3-carboxy-1-isopropylbut-2-enyl]-N^1,3-dimethyl-L-valinamide]
[1]
  Ratio KBV1/KB: 308.7
  IC50: 525 nM
[2]
  Ratio KB85/KB: 4.0
  IC50: 6.8 nM
[3]; [4]
  IC50: 1.7 nM

## CN[C@H](C(=O)N[C@H](C(=O)N(C)[C@H](/C=C(\C)C(=O)O)C(C)C)[C@H](C)OC)C(C)(C)c1ccccc1 [Example 88, N,β,β-trimethyl-L-phenylalanyl-N^1-[(1S,2E)-3-carboxy-1-isopropyl-2-butenyl]-N^1,O-dimethyl-L-allothreoninamide]
[1]
  Ratio KBV1/KB: 3.4
  IC50: ≥ 3000 nM
[2]
  Ratio KB85/KB: 2.0
  IC50: 1740 nM
[3]; [4]
  IC50: 871 nM

## CCOC(=O)/C(C)=C/[C@H](C(C)C)N(C)C(=O)[C@@H](NC(=O)[C@H](NC)C(C)(C)c1cc(C)cc(C)c1)C(C)(C)C [Example 16b, N,β,β,3,5-pentamethyl-D-phenylalanyl-N^1-[(1S,2E)-4-ethoxy-1-isopropyl-3-methyl-4-oxo-2-butenyl]-N^1,3-dimethyl-L-valinamide]
[1]
  Ratio KBV1/KB: 11.7
  IC50: ≥ 3000 nM
[2]
  Ratio KB85/KB: 5.9
  IC50: 1510 nM
[3]; [4]
  IC50: 257 nM

## CN[C@H](C(=O)N[C@H](C(=O)N(C)[C@H](/C=C(\C)C(=O)NCCC#N)C(C)C)C(C)(C)C)C(C)(C)c1ccccc1 [Example 109, N,β,β-trimethyl-L-phenylalanyl-N^1-{(1S,2E)-4-[(2-cyanoethyl)amino]-1-isopropyl-3-methyl-4-oxo-2-butenyl}-N^1,3-dimethyl-L-valinamide]
[1]
  Ratio KBV1/KB: 23.3
  IC50: ≥ 3000 nM
[2]
  Ratio KB85/KB: 3.4
  IC50: 435 nM
[3]; [4]
  IC50: 129 nM

## CN[C@H](C(=O)N[C@H](C(=O)N(C)[C@H](/C=C(\C)C(=O)O)C(C)C)C(C)(C)C)[C@H](C)c1ccccc1 [Example 154, (βR)-N,β-dimethyl-L-phenylalanyl-N^1-[(1S,2E)-3-carboxy-1-isopropylbut-2-enyl]-N^1,3-dimethyl-L-valinamide]
[1]
  Ratio KBV1/KB: 6.8
  IC50: > 3000 nM
[2]
  Ratio KB85/KB: 1.3
  IC50: 584 nM
[3]; [4]
  IC50: 438 nM

## CCOC(=O)/C(C)=C/[C@H](C(C)C)N(C)C(=O)[C@@H](NC(=O)[C@@H](NC)C(C)(C)c1ccc(OC)cc1)C(C)(C)C [Example 56, N,O,β,β-tetramethyl-L-tyrosyl-N^1-[(1S,2E)-4-ethoxy-1-isopropyl-3-methyl-4-oxo-2-butenyl]-N^1,3-dimethyl-L-valinamide]
[1]
  Ratio KBV1/KB: 67.6
  IC50: 1780 nM
[2]
  Ratio KB85/KB: 18.2
  IC50: 479 nM
[3]; [4]
  IC50: 26.3 nM
